These results are taken from US8420817B2, “Tricyclic N-heteroaryl-carboxamide derivatives, preparation and therapeutic use thereof” (Sanofi, priority 2007, dated 2013).

SMILES strings stand for the structures.

In the case of `O=C(Nc1cnc2c(c1)nc1n2CCC1)c1cc2ccc(Cl)cc2n1Cc1cccc(F)c1`, the melting point (in general, the temperature, or range, at which the solid turns liquid) is 252 to 253 °C.
Regarding `O=C(Nc1cnc2c(c1)nc1n2CCC1)c1cc2cc(Cl)ccc2n1Cc1cccc(F)c1`, the melting point lay within 263 to 264 °C.
Under `O=C(Nc1cnc2c(c1)nc1n2CCC1)c1cc2ccccc2n1Cc1cccc(F)c1` stands 243 to 244 °C; under `Cc1cccc2c1cc(C(=O)Nc1cnc3c(c1)nc1n3CCC1)n2Cc1cccc(F)c1`, 303 to 304 °C.
Next, `Cc1ccc2cc(C(=O)Nc3cnc4c(c3)nc3n4CCC3)n(Cc3cccc(F)c3)c2c1`: 182 to 183 °C; `Cc1ccc2c(c1)cc(C(=O)Nc1cnc3c(c1)nc1n3CCC1)n2Cc1cccc(F)c1`: 237 to 238 °C; `CCc1ccc2cc(C(=O)Nc3cnc4c(c3)nc3n4CCC3)n(Cc3cccc(F)c3)c2c1`: 224 to 226 °C.
Consider `Cc1ccc(C)c2c1cc(C(=O)Nc1cnc3c(c1)nc1n3CCC1)n2Cc1cccc(F)c1`, for which the melting point was 286 to 288 °C.
Next, `O=C(Nc1cnc2c(c1)nc1n2CCC1)c1cc2cc(F)cnc2n1Cc1cccc(F)c1`: 242 to 243 °C; `O=C(Nc1cnc2c(c1)nc1n2CCC1)c1cc2c(F)cccc2n1Cc1cccc(F)c1`: 265 to 266 °C.
As to `O=C(Nc1cnc2c(c1)nc1n2CCC1)c1cc2cccc(F)c2n1Cc1cccc(F)c1`, the melting point was in the range of 237 to 239 °C.
Under `O=C(Nc1cnc2c(c1)nc1n2CCC1)c1cc2ccc(F)cc2n1Cc1cccc(F)c1` stands 235 to 236 °C; under `O=C(Nc1cnc2c(c1)nc1n2CCC1)c1cc2c(Cl)cccc2n1Cc1cccc(F)c1`, 302 to 303 °C.
For `O=C(Nc1cnc2c(c1)nc1n2CCC1O)c1cc2cc(F)ccc2n1Cc1cccc(F)c1` (racemic), the melting point was 288 to 290 °C.
Next, `CC(=O)OC1CCn2c1nc1cc(NC(=O)c3cc4cc(F)ccc4n3Cc3cccc(F)c3)cnc12` (racemic) [Compound 2, N-(6-Acetoxy-7,8-dihydro-6H-pyrrolo[2′,1′:2,3]imidazo[4,5-b]pyridin-3-yl)-5-fluoro-1-(3-fluorobenzyl)-1H-indole-2-carboxamide]: 139 to 141 °C.
Next, `O=C(Nc1cnc2c(c1)nc1n2CCC1c1ccccc1)c1cc2cc(C(F)(F)F)ccc2n1Cc1cccc(F)c1` (racemic) [Compound 30, N-(6-Phenyl-7,8-dihydro-6H-pyrrolo[2′,1′:2,3]imidazo[4,5-b]pyridin-3-yl)-5-trifluoromethyl-1-(3-fluorobenzyl)-1H-indole-2-carboxamide]: 129 to 130 °C; `NC1CCn2c1nc1cc(NC(=O)c3cc4cc(F)ccc4n3Cc3cccc(F)c3)cnc12` (racemic) [Compound 34, N-(6-Amino-7,8-dihydro-6H-pyrrolo[2′,1′:2,3]imidazo[4,5-b]pyridin-3-yl)-5-fluoro-1-(3-fluorobenzyl)-1H-indole-2-carboxamide]: 218 to 220 °C; `CC(=O)NC1CCn2c1nc1cc(NC(=O)c3cc4cc(F)ccc4n3Cc3cccc(F)c3)cnc12` (racemic) [Compound 35, N-(6-Acetylamino-7,8-dihydro-6H-pyrrolo[2′,1′:2,3]imidazo[4,5-b]pyridin-3-yl)-5-fluoro-1-(3-fluorobenzyl)-1H-indole-2-carboxamide]: 282 to 283 °C.
In turn, `O=C(Nc1cnc2c(c1)nc1n2CCC1O)c1cc2ccc(C(F)(F)F)cc2n1Cc1cccc(F)c1` (single isomer, unassigned; (-)) [Compound 28, (−)-N-(6-Hydroxy-7,8-dihydro-6H-pyrrolo[2′,1′:2,3]imidazo[4,5-b]pyridin-3-yl)-6-trifluoromethyl-1-(3-fluorobenzyl)-1H-indole-2-carboxamide] returned a melting point of 269 to 271 °C.
